Experimental data reported in ChEMBL document CHEMBL5512645, “A novel antimicrobial peptide with broad-spectrum and exceptional stability derived from the natural peptide Brevicidine” (Eur J Med Chem, 2024).
Active and inactive are the calls of the source. No cut-off for these calls is given here.

Legend:
Staphylococcus aureus [1] = experiment: Antibacterial activity against Staphylococcus aureus ATCC 25923 at sub-MIC measured after 4 days; type: functional, organism-based; details: time 4.0 day
Pseudomonas aeruginosa [2] = experiment: Antibacterial activity against Pseudomonas aeruginosa ATCC 27853 at sub-MIC measured after 2 days; type: functional, organism-based; details: time 2.0 day
Acinetobacter baumannii = experiment: Antibacterial activity against Acinetobacter baumannii ATCC 19606 incubated for 18 to 24 hrs by broth microdilution method; type: functional; details: time 18-24 hrs
Enterococcus faecalis = experiment: Antibacterial activity against Enterococcus faecalis ATCC 29212 incubated for 18 to 24 hrs by broth microdilution method; type: functional; details: time 18-24 hrs
[3] = system: Staphylococcus epidermidis; experiment: Antibacterial activity against Staphylococcus epidermidis ATCC 12228 incubated for 18 to 24 hrs by broth microdilution method; type: functional; details: time 18-24 hrs
Klebsiella pneumoniae = experiment: Antibacterial activity against Klebsiella pneumoniae ATCC 700603 incubated for 18 to 24 hrs by broth microdilution method; type: functional; details: time 18-24 hrs
Pseudomonas aeruginosa [4] = experiment: Antibacterial activity against Pseudomonas aeruginosa ATCC 27853 incubated for 18 to 24 hrs by broth microdilution method; type: functional; details: time 18-24 hrs
Bacillus subtilis = experiment: Antibacterial activity against Bacillus subtilis ATCC 23857 incubated for 18 to 24 hrs by broth microdilution method; type: functional; details: time 18-24 hrs
Escherichia coli = experiment: Antibacterial activity against Escherichia coli ATCC 25922 incubated for 18 to 24 hrs by broth microdilution method; type: functional; details: time 18-24 hrs
Staphylococcus aureus [5] = experiment: Antibacterial activity against Staphylococcus aureus ATCC 25923 incubated for 18 to 24 hrs by broth microdilution method; type: functional; details: time 18-24 hrs
Erythrocyte = experiment: Hemolytic activity in mouse red blood cell assessed as hemolysis incubated for 1 hr; type: toxicity, cell-based
Staphylococcus aureus [6] = experiment: Antibacterial activity against Staphylococcus aureus ATCC 25923 at sub-MIC measured after 5 days; type: functional, organism-based; details: time 5.0 day
Pseudomonas aeruginosa [7] = experiment: Antibacterial activity against Pseudomonas aeruginosa ATCC 27853 at sub-MIC measured after 3 days; type: functional, organism-based; details: time 3.0 day
[8] = Toxicity in male BALB/c mouse assessed as cellular infiltration in spleen at 19.45 mg/kg, ip administered as single dose by H and E staining based analysis; type: organism-based; details: in vivo
[9] = Toxicity in male BALB/c mouse assessed as survival rate at 15 mg/kg, ip measured after 7 days relative to control; type: organism-based; details: in vivo, 168 h, time 7 day
[10] = Toxicity in male BALB/c mouse assessed as cellular infiltration in liver at 19.45 mg/kg, ip administered as single dose by H and E staining based analysis; type: organism-based; details: in vivo
[11] = Toxicity in male BALB/c mouse assessed as massive edema in kidney at 19.45 mg/kg, ip administered as single dose by H and E staining based analysis; type: organism-based; details: in vivo
[12] = Toxicity in male BALB/c mouse assessed as alveolar shrinkage in lung at 19.45 mg/kg, ip administered as single dose by H and E staining based analysis; type: organism-based; details: in vivo
[13] = Toxicity in male BALB/c mouse assessed as cellular infiltration in kidney at 19.45 mg/kg, ip administered as single dose by H and E staining based analysis; type: organism-based; details: in vivo
[14] = Toxicity in male BALB/c mouse assessed as hemorrhage in kidney at 19.45 mg/kg, ip administered as single dose by H and E staining based analysis; type: organism-based; details: in vivo
[15] = Toxicity in male BALB/c mouse assessed as cellular infiltration in lung at 19.45 mg/kg, ip administered as single dose by H and E staining based analysis; type: organism-based; details: in vivo
[16] = Toxicity in male BALB/c mouse assessed as hemorrhage in lung at 19.45 mg/kg, ip administered as single dose by H and E staining based analysis; type: organism-based; details: in vivo
[17] = Toxicity in male BALB/c mouse assessed as survival rate at 23.8 to 30 mg/kg, ip measured within 30 mins relative to control; type: organism-based; details: in vivo, 0.5 h, dose 23.8-30 mg/kg
[18] = Toxicity in male BALB/c mouse assessed as lethal dose administered as ip measured after 7 days; type: organism-based; details: in vivo, ip, 168 h, time 7 day
[19] = Toxicity in male BALB/c mouse assessed as hemorrhage in spleen at 19.45 mg/kg, ip administered as single dose by H and E staining based analysis; type: organism-based; details: in vivo
[20] = Toxicity in male BALB/c mouse assessed as cell necrosis in liver at 19.45 mg/kg, ip administered as single dose by H and E staining based analysis; type: organism-based; details: in vivo
[21] = Toxicity in male BALB/c mouse assessed as hemorrhage in liver at 19.45 mg/kg, ip administered as single dose by H and E staining based analysis; type: organism-based; details: in vivo

Row | Compound | MIC (Acinetobacter baumannii) [µM] | MIC (Enterococcus faecalis) [µM] | MIC [3] [µM] | MIC (Klebsiella pneumoniae) [µM] | MIC (Pseudomonas aeruginosa [4]) [µM] | MIC (Bacillus subtilis) [µM] | MIC (Escherichia coli) [µM] | MIC (Staphylococcus aureus [5]) [µM] | MHC (Erythrocyte) [µM] | other results
1 | CO[C@H]1/C=C/O[C@@]2(C)Oc3c(C)c(O)c4c(O)c(c(/C=N/N5CCN(C)CC5)c(O)c4c3C2=O)NC(=O)/C(C)=C\C=C\[C@H](C)[C@H](O)[C@@H](C)[C@@H](O)[C@@H](C)[C@H](OC(C)=O)[C@@H]1C | – | – | – | – | – | – | – | – | – | Activity (Staphylococcus aureus [1]): inactive; Activity (Pseudomonas aeruginosa [2]): inactive
2 | CCC(C)CCC(=O)N[C@H](CC(N)=O)C(=O)N[C@H](Cc1ccc(O)cc1)C(=O)N[C@H](Cc1c[nH]c2ccccc12)C(=O)N[C@H](CCCN)C(=O)N[C@@H](CCCN)C(=O)NCC(=O)N[C@H](C)C(=O)N[C@@H](Cc1c[nH]c2ccccc12)C(=O)N[C@@H]1C(=O)N[C@@H]([C@@H](C)CC)C(=O)NCC(=O)N[C@@H](CO)C(=O)O[C@@H]1C (mixture of isomers) | 8 | 64 | 32 | 16 | 16 | 16 | 8 | 32 | 32 | –
3 | CCC(C)CCC(=O)N[C@H](CC(N)=O)C(=O)N[C@H](Cc1ccc(O)cc1)C(=O)N[C@H](Cc1c[nH]c2ccccc12)C(=O)N[C@H](CN)C(=O)N[C@@H](CN)C(=O)NCC(=O)N[C@H](CN)C(=O)N[C@@H](Cc1c[nH]c2ccccc12)C(=O)N[C@@H]1C(=O)N[C@@H]([C@@H](C)CC)C(=O)NCC(=O)N[C@@H](CO)C(=O)O[C@@H]1C (mixture of isomers) | 32 | > 128 | 16 | 16 | 4 | 32 | 32 | 128 | 128 | –
4 | CCC(C)CCC(=O)N[C@H](CC(N)=O)C(=O)N[C@H](Cc1ccc(O)cc1)C(=O)N[C@H](Cc1c[nH]c2ccccc12)C(=O)N[C@H](CCCN)C(=O)N[C@@H](CCCN)C(=O)N[C@@H](CCCN)C(=O)N[C@H](CCCN)C(=O)N[C@@H](Cc1c[nH]c2ccccc12)C(=O)N[C@@H]1C(=O)N[C@@H]([C@@H](C)CC)C(=O)NCC(=O)N[C@@H](CO)C(=O)O[C@@H]1C (mixture of isomers) | 8 | 128 | 16 | 2 | 1 | 8 | 2 | 32 | 128 | –
5 | CCC(C)CCC(=O)N[C@H](CC(N)=O)C(=O)N[C@H](Cc1ccc(O)cc1)C(=O)N[C@H](Cc1c[nH]c2ccccc12)C(=O)N[C@H](CCCN)C(=O)N[C@@H](C)C(=O)NCC(=O)N[C@H](CCCN)C(=O)N[C@@H](Cc1c[nH]c2ccccc12)C(=O)N[C@@H]1C(=O)N[C@@H]([C@@H](C)CC)C(=O)NCC(=O)N[C@@H](CO)C(=O)O[C@@H]1C (mixture of isomers) | 8 | 64 | 32 | 8 | 4 | 16 | 8 | 32 | 64 | –
6 | CCC(C)CCC(=O)N[C@H](CC(N)=O)C(=O)N[C@H](Cc1ccc(C(C)(C)C)cc1)C(=O)N[C@H](Cc1c[nH]c2ccccc12)C(=O)N[C@H](CCCN)C(=O)N[C@@H](CCCN)C(=O)NCC(=O)N[C@H](CCCN)C(=O)N[C@@H](Cc1c[nH]c2ccccc12)C(=O)N[C@@H]1C(=O)N[C@@H]([C@@H](C)CC)C(=O)NCC(=O)N[C@@H](CO)C(=O)O[C@@H]1C (mixture of isomers) | 8 | 32 | 16 | 16 | 8 | 8 | 16 | 16 | 16 | –
7 | CCC(C)CCC(=O)N[C@H](CC(N)=O)C(=O)N[C@H](Cc1ccc(O)cc1)C(=O)N[C@H](Cc1c[nH]c2ccccc12)C(=O)N[C@H](CCCNC(=N)N)C(=O)N[C@@H](CCCNC(=N)N)C(=O)NCC(=O)N[C@H](CCCNC(=N)N)C(=O)N[C@@H](Cc1c[nH]c2ccccc12)C(=O)N[C@@H]1C(=O)N[C@@H]([C@@H](C)CC)C(=O)NCC(=O)N[C@@H](CO)C(=O)O[C@@H]1C (mixture of isomers) | 8 | 64 | 2 | 4 | 4 | 16 | 4 | 64 | 128 | –
8 | CCC(C)CCC(=O)N[C@H](CCCN)C(=O)N[C@H](Cc1ccc(O)cc1)C(=O)N[C@H](Cc1c[nH]c2ccccc12)C(=O)N[C@H](CCCN)C(=O)N[C@@H](CCCN)C(=O)NCC(=O)N[C@H](CCCN)C(=O)N[C@@H](Cc1c[nH]c2ccccc12)C(=O)N[C@@H]1C(=O)N[C@@H]([C@@H](C)CC)C(=O)NCC(=O)N[C@@H](CO)C(=O)O[C@@H]1C (mixture of isomers) | 8 | 64 | 16 | 2 | 1 | 4 | 4 | 32 | 128 | –
9 | CCC(C)CCC(=O)N[C@H](CC(N)=O)C(=O)N[C@H](Cc1ccc(O)cc1)C(=O)N[C@H](Cc1c[nH]c2ccccc12)C(=O)N[C@H](C)C(=O)N[C@@H](CCCN)C(=O)NCC(=O)N[C@H](CCCN)C(=O)N[C@@H](Cc1c[nH]c2ccccc12)C(=O)N[C@@H]1C(=O)N[C@@H]([C@@H](C)CC)C(=O)NCC(=O)N[C@@H](CO)C(=O)O[C@@H]1C (mixture of isomers) | 8 | 32 | 32 | 8 | 8 | 16 | 8 | 32 | 64 | –
10 | GENTAMICIN | – | – | – | – | – | – | – | – | – | Activity (Staphylococcus aureus [6]): inactive; Activity (Pseudomonas aeruginosa [7]): inactive
11 | POLYMYXIN B | – | – | – | – | – | – | – | – | 128 | Activity [8]: Toxic; Survival [9]: 100%; Activity [10]: Toxic; Activity [11]: Toxic; Activity [12]: Toxic; Activity [13]: Toxic; Activity [14]: Toxic; Activity [15]: Toxic; Activity [16]: Toxic; Survival [17]: 0%; LD50 [18]: 19.45 mg/kg; Activity [19]: Toxic; Activity [20]: Toxic; Activity [21]: Toxic
